This note sets out measurements from ChEMBL document CHEMBL1131022, “Synthesis and biological activity of a novel methylamine-bridged enkephalin analogue (MABE): a new route to cyclic peptides and peptidomimetics” (J Med Chem, 1998).

The pKi is the Ki on a negative log10 scale, so that one unit is a factor of ten. Low readings indicate a large Ki, high ones a small Ki.

Assay [1] deals with Rattus norvegicus. The assay can be described thus: In vivo efficacy was measured using thermal escape assay. The format is functional.
Assay [2] addresses Delta-type opioid receptor (Homo sapiens, UniProt P41143). The assay is described as follows: In vitro potency was measured against human Opioid receptor delta 1.
In assay [3] the target is Mu-type opioid receptor (Homo sapiens, UniProt P35372). The assay can be described thus: In vitro potency was measured against human Opioid receptor mu 1.
The target of assay [4] is Kappa-type opioid receptor (Homo sapiens, UniProt P41145). The assay can be described thus: In vitro potency was measured against human Opioid receptor kappa 1.

pKi: −log10 of the molar value.

Sequence of Kappa-type opioid receptor (P41145 whole entry): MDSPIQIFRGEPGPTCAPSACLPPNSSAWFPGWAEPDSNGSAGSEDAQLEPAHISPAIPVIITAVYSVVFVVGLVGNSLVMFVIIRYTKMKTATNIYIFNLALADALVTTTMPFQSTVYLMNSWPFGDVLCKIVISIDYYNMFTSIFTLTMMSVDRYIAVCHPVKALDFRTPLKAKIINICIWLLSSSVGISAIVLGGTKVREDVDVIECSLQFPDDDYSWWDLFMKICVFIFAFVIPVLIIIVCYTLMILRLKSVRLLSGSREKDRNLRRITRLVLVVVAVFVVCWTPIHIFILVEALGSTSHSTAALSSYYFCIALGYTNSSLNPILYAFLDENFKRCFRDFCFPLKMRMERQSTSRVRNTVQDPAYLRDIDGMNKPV
Sequence of Delta-type opioid receptor (P41143 whole entry): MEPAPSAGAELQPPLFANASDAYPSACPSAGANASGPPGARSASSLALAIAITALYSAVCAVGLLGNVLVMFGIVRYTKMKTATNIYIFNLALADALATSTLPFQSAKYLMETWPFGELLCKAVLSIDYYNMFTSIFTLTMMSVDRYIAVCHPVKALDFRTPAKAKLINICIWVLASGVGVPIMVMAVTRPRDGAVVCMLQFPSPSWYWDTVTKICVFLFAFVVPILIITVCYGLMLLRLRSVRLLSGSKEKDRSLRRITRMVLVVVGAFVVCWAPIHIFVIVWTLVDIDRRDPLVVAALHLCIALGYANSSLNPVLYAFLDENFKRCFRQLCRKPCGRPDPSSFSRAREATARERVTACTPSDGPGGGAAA
Sequence of Mu-type opioid receptor (P35372 whole entry): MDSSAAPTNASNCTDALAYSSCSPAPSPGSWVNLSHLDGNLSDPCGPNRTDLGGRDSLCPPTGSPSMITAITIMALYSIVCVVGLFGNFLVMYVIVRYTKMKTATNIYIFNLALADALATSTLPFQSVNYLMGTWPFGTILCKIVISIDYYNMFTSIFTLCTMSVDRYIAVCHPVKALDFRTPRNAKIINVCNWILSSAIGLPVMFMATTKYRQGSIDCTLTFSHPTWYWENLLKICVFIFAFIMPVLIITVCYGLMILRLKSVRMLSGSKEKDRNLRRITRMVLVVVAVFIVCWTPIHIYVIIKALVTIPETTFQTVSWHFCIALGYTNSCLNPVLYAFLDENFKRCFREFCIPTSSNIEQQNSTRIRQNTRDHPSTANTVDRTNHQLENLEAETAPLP

As to `CN1CCNC(=O)[C@H](Cc2ccccc2)NC(=O)CNC(=O)[C@H](NC(=O)[C@@H](N)Cc2ccc(O)cc2)C1`, the ED50 in assay [1] was 0.027 µg. Also, the pKi in assay [2] was 8.68; in assay [3], 8.80; in assay [4], 6.47.
On to `CC1(C)SSC(C)(C)C(NC(=O)[C@@H](N)Cc2ccc(O)cc2)C(=O)NCC(=O)N[C@@H](Cc2ccccc2)C(=O)NC1C(=O)O` (single isomer, unassigned), for which, in assay [1], the ED50 came out at 54 µg.
On the same count and under the same terms, the result for `C[C@@H](NC(=O)[C@@H](N)Cc1ccc(O)cc1)C(=O)NCC(=O)N(C)[C@@H](Cc1ccccc1)C(=O)NCCO` [DAMGO] reads 0.14 µg; that for `CN1CC[C@]23c4c5ccc(O)c4O[C@H]2[C@@H](O)C=C[C@H]3[C@H]1C5` [MORPHINE], 2.4 µg.
